Test results published in PubChem BioAssay AID1963962 (Molecular Pharmacology Branch, DTP, NCI, 2024).

Tested on: 967376-340-R-J2-PDC multicell spheroid viability
Assay: Anticancer human tumor 967376-340-R-J2-PDC patient-derived colon adenocarcinoma cell line growth inhibition [PI3K]
Conditions: for IC50: curve of first compound; for viability, T/C: stronger effect = lower value
Summary of the method: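 High-throughput combination screen: PI3K inhibitors crossed with targeted small molecules on complex spheroids of tumor cells, HUVEC and MSCs at 37 degrees C, 5% CO2. Top concentration was at or near clinical Cmax (otherwise 10 microM), with half-log decrements.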
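Note: spheroids exposed to agents for 7 days before read-out.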
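Throughout, for viability, T/C: luminescence used as surrogate of cell viability.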

CCN1CCN(Cc2ccc(Nc3ncc(F)c(-c4cc(F)c5nc(C)n(C(C)C)c5c4)n3)nc2)CC1 + CC(Nc1ccc2c(c1)OCCn1cc(N3C(=O)OCC3C(F)F)nc1-2)C(N)=O
IC50 (second compound 0.00316 µM): > 1000 nM
IC50 (second compound 0.01 µM): > 1000 nM
IC50 (second compound 0.0316 µM): > 1000 nM
IC50 (second compound 0.1 µM): 793 nM
IC50 (second compound 0.316 µM): 109 nM
IC50 (second compound 1 µM): 55.1 nM
viability, T/C (second compound 0.00316 µM, first compound 0.00316 µM): 94.2%
viability, T/C (second compound 0.00316 µM, first compound 0.01 µM): 73.2%
viability, T/C (second compound 0.00316 µM, first compound 0.0316 µM): 86.9%
viability, T/C (second compound 0.00316 µM, first compound 0.1 µM): 75.2%
viability, T/C (second compound 0.00316 µM, first compound 0.316 µM): 80.9%
viability, T/C (second compound 0.00316 µM, first compound 1 µM): 70.5%
viability, T/C (second compound 0.01 µM, first compound 0.00316 µM): 94.9%
viability, T/C (second compound 0.01 µM, first compound 0.01 µM): 74.8%
viability, T/C (second compound 0.01 µM, first compound 0.0316 µM): 71.4%
viability, T/C (second compound 0.01 µM, first compound 0.1 µM): 93.2%
viability, T/C (second compound 0.01 µM, first compound 0.316 µM): 69.5%
viability, T/C (second compound 0.01 µM, first compound 1 µM): 67.7%
viability, T/C (second compound 0.0316 µM, first compound 0.00316 µM): 77.6%
viability, T/C (second compound 0.0316 µM, first compound 0.01 µM): 81.3%
viability, T/C (second compound 0.0316 µM, first compound 0.0316 µM): 79.2%
viability, T/C (second compound 0.0316 µM, first compound 0.1 µM): 86.8%
viability, T/C (second compound 0.0316 µM, first compound 0.316 µM): 63.4%
viability, T/C (second compound 0.0316 µM, first compound 1 µM): 52.3%
viability, T/C (second compound 0.1 µM, first compound 0.00316 µM): 62.7%
viability, T/C (second compound 0.1 µM, first compound 0.01 µM): 64.6%
viability, T/C (second compound 0.1 µM, first compound 0.0316 µM): 69.8%
viability, T/C (second compound 0.1 µM, first compound 0.1 µM): 65.1%
viability, T/C (second compound 0.1 µM, first compound 0.316 µM): 47.3%
viability, T/C (second compound 0.1 µM, first compound 1 µM): 51.3%
viability, T/C (second compound 0.316 µM, first compound 0.00316 µM): 62.7%
viability, T/C (second compound 0.316 µM, first compound 0.01 µM): 54.9%
viability, T/C (second compound 0.316 µM, first compound 0.0316 µM): 57.4%
viability, T/C (second compound 0.316 µM, first compound 0.1 µM): 47.5%
viability, T/C (second compound 0.316 µM, first compound 0.316 µM): 48.6%
viability, T/C (second compound 0.316 µM, first compound 1 µM): 42.5%
viability, T/C (second compound 1 µM, first compound 0.00316 µM): 59.4%
viability, T/C (second compound 1 µM, first compound 0.01 µM): 52.2%
viability, T/C (second compound 1 µM, first compound 0.0316 µM): 54.2%
viability, T/C (second compound 1 µM, first compound 0.1 µM): 49.3%
viability, T/C (second compound 1 µM, first compound 0.316 µM): 35.5%
viability, T/C (second compound 1 µM, first compound 1 µM): 26%
